Columns and labels:
[1] = biological target: T1, NPR-32 (Caenorhabditis elegans, UniProt O62403); assay: Saturation binding of [3H]CP55,940 to NPR-32 receptors; design: species or system C. elegans; details: saturation binding curve, worm membranes, read-out: apparent Kd
T1 sequence (O62403 1-440): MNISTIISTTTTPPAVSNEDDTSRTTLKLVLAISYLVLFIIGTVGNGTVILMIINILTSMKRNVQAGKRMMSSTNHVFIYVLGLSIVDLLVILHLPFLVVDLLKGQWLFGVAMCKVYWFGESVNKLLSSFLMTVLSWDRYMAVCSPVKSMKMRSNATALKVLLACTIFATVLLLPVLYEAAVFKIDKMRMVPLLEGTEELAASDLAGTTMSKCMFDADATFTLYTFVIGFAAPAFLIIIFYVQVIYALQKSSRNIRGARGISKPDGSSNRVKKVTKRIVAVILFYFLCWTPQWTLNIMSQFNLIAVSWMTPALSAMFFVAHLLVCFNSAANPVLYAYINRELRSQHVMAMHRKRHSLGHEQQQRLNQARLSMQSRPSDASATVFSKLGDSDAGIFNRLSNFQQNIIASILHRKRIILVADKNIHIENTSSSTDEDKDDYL
Procedure: (§1) Briefly, 75 μg of crude membrane preparations were resuspended in 300 μL of assay buffer (50 mM Tris-HCl, 2.5 mM EDTA, 5 mM MgCl2, 0.5% BSA, pH 7.5) in silanized glass tubes and preincubated with 5 µM JZL-195 for 30 min at 30 °C. […] CP55,940 for 75 min at 30 °C. After the incubation time, membrane suspensions were rapidly filtered through a 0.1% polyethyleneimine presoaked 96-well microplate bonded with GF/B glass fiber filters (UniFilter-96 GF/B, PerkinElmer Life Sciences) under vacuum and washed 12 times with 120 µL of washing buffer (50 mM Tris-HCl, 2.5 mM EDTA, 5 mM MgCl2, 0.5% BSA, pH 7.5). Filters were added with 50 µL of MicroScint20 scintillation liquid, and radioactivity was measured with the 1450 MicroBeta Trilux top counter (PerkinElmer Life Sciences). The results were analyzed with GraphPad Prism 5® and expressed as % of [^3H]CP55,940 binding. IC50 values of each compound were estimated from fitted nonlinear curves and were used to calculate the Ki values by applying the Cheng-Prusoff equation. Specific binding was determined using the npr-32(ok2541) mutant strain in which saturation binding was abolished. Importantly, normalizing against the NPR-19 null mutant strain- npr-19(ok2068), no saturation binding curve could be achieved.
However, no binding or other direct interactions between AEA and these GPCRs were reported. […]

[2] = system: NPR-19; assay: [3H]CP55,940 binding normalized against NPR-19 null mutant npr-19(ok2068); design: species or system C. elegans; details: no saturation binding curve (data not shown)
Procedure: as §1

SMILES: CCCCCCC(C)(C)c1ccc([C@@H]2C[C@H](O)CC[C@H]2CCCO)c(O)c1 [CP55,940]
- Kd [1]: 2.5 ± 1.8 nM
- binding to NPR-19 [2]: did not bind

From PMC7564282, “Juniperonic Acid Biosynthesis is Essential in Caenorhabditis elegans Lacking Δ6 Desaturase (fat-3) and Generates New ω-3 Endocannabinoids” (Cells, 2020)
